Results reported in US8952024B2, “Herbicidal pyrimidone derivatives” (E I du Pont de Nemours and Company, priority 2009, dated 2015).

Key:
Assay type in all cases: in vivo
[1] = test system: umbrella sedge (Cyperus difformis); experiment: Test B flooded paddy test; settings: for Plant response rating, Flood, Sedge, Umbrella: 250 g ai/ha, flooded paddy test, visual rating on 0 to 100 scale (0 no effect, 100 complete control) after 13 to 15 days; for Plant response rating, Sedge, Umbrella: Flood (flooded paddy test), 13 to 15 days; for Sedge, Umbrella plant response rating: Flood, 31 g ai/ha, scale 0 to 100 (0 no effect, 100 complete control)
Summary of the method: (§1)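 2-leaf seedlings; pots flooded 3 cm over soil at treatment; cpd dosed into floodwater, depth kept constant. Greenhouse 13–15 d. Visual rating vs untreated controls, 0 = no effect, 100 = complete control.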

[2] = test system: rice (Oryza sativa); experiment: Test B flooded paddy test; settings: for Plant response rating, Flood, Rice: 250 g ai/ha, flooded paddy test, visual rating on 0 to 100 scale (0 no effect, 100 complete control) after 13 to 15 days; for Plant response rating, Rice: Flood (flooded paddy test), 13 to 15 days; for Rice plant response rating: Flood, 31 g ai/ha, scale 0 to 100 (0 no effect, 100 complete control)
Summary of the method: as §1

[3] = test system: ducksalad (Heteranthera limosa); experiment: Test B flooded paddy test; settings: for Plant response rating, Flood, Ducksalad: 250 g ai/ha, flooded paddy test, visual rating on 0 to 100 scale (0 no effect, 100 complete control) after 13 to 15 days; for Plant response rating, Ducksalad: Flood (flooded paddy test), 13 to 15 days; for Ducksalad plant response rating: Flood, 31 g ai/ha, scale 0 to 100 (0 no effect, 100 complete control)
Summary of the method: as §1

[4] = test system: barnyardgrass (Echinochloa crus-galli); experiment: Test B flooded paddy test; settings: for Plant response rating, Flood, Barnyardgrass: 250 g ai/ha, flooded paddy test, visual rating on 0 to 100 scale (0 no effect, 100 complete control) after 13 to 15 days; for Plant response rating, Barnyardgrass: Flood (flooded paddy test), 13 to 15 days; for Barnyardgrass plant response rating: Flood, 31 g ai/ha, scale 0 to 100 (0 no effect, 100 complete control)
Summary of the method: as §1

[5] = test system: corn (Zea mays); experiment: Test A pre-/postemergence plant response
Text: (§2) Seeds of barnyardgrass (Echinochloa crus-galli), large crabgrass (Digitaria sanguinalis), giant foxtail (Setaria faberii), morningglory (Ipomoea spp.), pigweed (Amaranthus retroflexus), velvetleaf (Abutilon theophrasti), wheat (Triticum aestivum) and corn (Zea mays) were planted into a blend of loam soil and sand and treated preemergence with a directed soil spray using test chemicals formulated in a non-phytotoxic solvent mixture which included a surfactant. At the same time these species were also treated with postemergence applications of test compounds formulated in the same manner.
(§3) Plants ranged in height from two to ten cm and were in the one- to two-leaf stage for the postemergence treatment. Treated plants and untreated controls were maintained in a greenhouse for approximately ten days, after which time all treated plants were compared to untreated controls and visually evaluated for injury. Plant response ratings, summarized in Table A, are based on a 0 to 100 scale where 0 is no effect and 100 is complete control. A dash (-) response means no test result.

[6] = test system: pigweed (Amaranthus retroflexus); experiment: Test A pre-/postemergence plant response
Text: as §2, §3

[7] = test system: wheat (Triticum aestivum); experiment: Test A pre-/postemergence plant response
Text: as §2, §3

[8] = test system: large crabgrass (Digitaria sanguinalis); experiment: Test A pre-/postemergence plant response
Text: as §2, §3

[9] = test system: giant foxtail (Setaria faberii); experiment: Test A pre-/postemergence plant response
Text: as §2, §3

[10] = test system: velvetleaf (Abutilon theophrasti); experiment: Test A pre-/postemergence plant response
Text: as §2, §3

[11] = test system: barnyardgrass (Echinochloa crus-galli); experiment: Test A pre-/postemergence plant response
Text: as §2, §3

[12] = test system: morningglory (Ipomoea spp.); experiment: Test A pre-/postemergence plant response
Text: as §2, §3

[13] = 62 g ai/ha, scale of 0 to 100 where 0 is no effect and 100 is complete control
[14] = 125 g ai/ha, scale 0 to 100, 0 is no effect, 100 is complete control
[15] = Postemergence, 125 g ai/ha, 0 to 100 scale where 0 is no effect and 100 is complete control
[16] = Postemergence, 500 g ai/ha, 0 to 100 scale, 0 = no effect, 100 = complete control, approx. ten days
[17] = Preemergence, 125 g ai/ha, 0 to 100 scale, 0 = no effect, 100 = complete control
[18] = Preemergence, 500 g ai/ha, visual injury, 0 to 100 scale (0 no effect, 100 complete control), approx. ten days

O=C1CCCC(O)=C1C(=O)c1cnc(-c2ccco2)n(-c2ccccc2)c1=O [Compound 76]
Plant response rating, Flood, Sedge, Umbrella [1]: 0
Plant response rating, Sedge, Umbrella [1, 13]: 0
Plant response rating, Sedge, Umbrella [1, 14]: 0
Sedge, Umbrella plant response rating [1]: 0
Plant response rating, Flood, Rice [2]: 0
Plant response rating, Rice [2, 13]: 0
Plant response rating, Rice [2, 14]: 0
Rice plant response rating [2]: 0
Plant response rating, Flood, Ducksalad [3]: 0
Plant response rating, Ducksalad [3, 13]: 0
Plant response rating, Ducksalad [3, 14]: 0
Ducksalad plant response rating [3]: 0
Plant response rating, Flood, Barnyardgrass [4]: 0
Plant response rating, Barnyardgrass [4, 13]: 0
Plant response rating, Barnyardgrass [4, 14]: 0
Barnyardgrass plant response rating [4]: 0
Plant response rating, Corn [5, 15]: 0
Plant response rating, Corn [5, 16]: 20
Plant response rating, Corn [5, 17]: 0
Plant response rating, Corn [5, 18]: 0
Plant response rating, Pigweed [6, 15]: 90
Plant response rating, Pigweed [6, 16]: 100
Plant response rating, Pigweed [6, 17]: 50
Plant response rating, Pigweed [6, 18]: 100
Plant response rating, Wheat [7, 15]: 0
Plant response rating, Wheat [7, 16]: 10
Plant response rating, Wheat [7, 17]: 0
Plant response rating, Wheat [7, 18]: 20
Plant response rating, Crabgrass, Large [8, 15]: 70
Plant response rating, Crabgrass, Large [8, 16]: 90
Plant response rating, Crabgrass, Large [8, 17]: 50
Plant response rating, Crabgrass, Large [8, 18]: 100
Plant response rating, Foxtail, Giant [9, 15]: 40
Plant response rating, Foxtail, Giant [9, 16]: 70
Plant response rating, Foxtail, Giant [9, 17]: 0
Plant response rating, Foxtail, Giant [9, 18]: 30
Plant response rating, Velvetleaf [10, 15]: 100
Plant response rating, Velvetleaf [10, 16]: 100
Plant response rating, Velvetleaf [10, 17]: 20
Plant response rating, Velvetleaf [10, 18]: 70
Plant response rating, Barnyardgrass [11, 15]: 50
Plant response rating, Barnyardgrass [11, 16]: 80
Plant response rating, Barnyardgrass [11, 17]: 0
Plant response rating, Barnyardgrass [11, 18]: 30
Plant response rating, Morningglory [12, 15]: 90
Plant response rating, Morningglory [12, 16]: 90
Plant response rating, Morningglory [12, 17]: 0
Plant response rating, Morningglory [12, 18]: 50

CCCCCc1ncc(C(=O)C2=C(O)CCCC2=O)c(=O)n1-c1ccccc1 [Compound 78]
Plant response rating, Flood, Sedge, Umbrella [1]: 40
Plant response rating, Sedge, Umbrella [1, 13]: 30
Plant response rating, Flood, Rice [2]: 20
Plant response rating, Rice [2, 13]: 0
Plant response rating, Flood, Ducksalad [3]: 20
Plant response rating, Ducksalad [3, 13]: 0
Plant response rating, Flood, Barnyardgrass [4]: 0
Plant response rating, Barnyardgrass [4, 13]: 0
Plant response rating, Corn [5, 15]: 0
Plant response rating, Corn [5, 16]: 20
Plant response rating, Corn [5, 17]: 0
Plant response rating, Corn [5, 18]: 0
Plant response rating, Pigweed [6, 15]: 100
Plant response rating, Pigweed [6, 16]: 100
Plant response rating, Pigweed [6, 17]: 50
Plant response rating, Pigweed [6, 18]: 100
Plant response rating, Wheat [7, 15]: 0
Plant response rating, Wheat [7, 16]: 0
Plant response rating, Wheat [7, 17]: 0
Plant response rating, Wheat [7, 18]: 0
Plant response rating, Crabgrass, Large [8, 15]: 30
Plant response rating, Crabgrass, Large [8, 16]: 70
Plant response rating, Crabgrass, Large [8, 17]: 10
Plant response rating, Crabgrass, Large [8, 18]: 50
Plant response rating, Foxtail, Giant [9, 15]: 20
Plant response rating, Foxtail, Giant [9, 16]: 50
Plant response rating, Foxtail, Giant [9, 17]: 0
Plant response rating, Foxtail, Giant [9, 18]: 10
Plant response rating, Velvetleaf [10, 15]: 100
Plant response rating, Velvetleaf [10, 16]: 100
Plant response rating, Velvetleaf [10, 17]: 20
Plant response rating, Velvetleaf [10, 18]: 50
Plant response rating, Barnyardgrass [11, 15]: 50
Plant response rating, Barnyardgrass [11, 16]: 70
Plant response rating, Barnyardgrass [11, 17]: 0
Plant response rating, Barnyardgrass [11, 18]: 30
Plant response rating, Morningglory [12, 15]: 70
Plant response rating, Morningglory [12, 16]: 100
Plant response rating, Morningglory [12, 17]: 0
Plant response rating, Morningglory [12, 18]: 0

CCCc1ncc(C(=O)C2=C(O)CCCC2=O)c(=O)n1Cc1ccc(OC)c(OC)c1 [Compound 84]
Plant response rating, Flood, Sedge, Umbrella [1]: 50
Plant response rating, Sedge, Umbrella [1, 13]: 0
Plant response rating, Sedge, Umbrella [1, 14]: 30
Sedge, Umbrella plant response rating [1]: 0
Plant response rating, Flood, Rice [2]: 0
Plant response rating, Rice [2, 13]: 0
Plant response rating, Rice [2, 14]: 0
Rice plant response rating [2]: 0
Plant response rating, Flood, Ducksalad [3]: 20
Plant response rating, Ducksalad [3, 13]: 0
Plant response rating, Ducksalad [3, 14]: 0
Ducksalad plant response rating [3]: 0
Plant response rating, Flood, Barnyardgrass [4]: 0
Plant response rating, Barnyardgrass [4, 13]: 0
Plant response rating, Barnyardgrass [4, 14]: 0
Barnyardgrass plant response rating [4]: 0
Plant response rating, Corn [5, 15]: 0
Plant response rating, Corn [5, 16]: 20
Plant response rating, Corn [5, 17]: 0
Plant response rating, Corn [5, 18]: 0
Plant response rating, Pigweed [6, 15]: 100
Plant response rating, Pigweed [6, 16]: 100
Plant response rating, Pigweed [6, 17]: 90
Plant response rating, Pigweed [6, 18]: 100
Plant response rating, Wheat [7, 15]: 0
Plant response rating, Wheat [7, 16]: 0
Plant response rating, Wheat [7, 17]: 0
Plant response rating, Wheat [7, 18]: 0
Plant response rating, Crabgrass, Large [8, 15]: 0
Plant response rating, Crabgrass, Large [8, 16]: 10
Plant response rating, Crabgrass, Large [8, 17]: 0
Plant response rating, Crabgrass, Large [8, 18]: 0
Plant response rating, Foxtail, Giant [9, 15]: 0
Plant response rating, Foxtail, Giant [9, 16]: 0
Plant response rating, Foxtail, Giant [9, 17]: 0
Plant response rating, Foxtail, Giant [9, 18]: 0
Plant response rating, Velvetleaf [10, 15]: 70
Plant response rating, Velvetleaf [10, 16]: 100
Plant response rating, Velvetleaf [10, 17]: 0
Plant response rating, Velvetleaf [10, 18]: 40
Plant response rating, Barnyardgrass [11, 15]: 0
Plant response rating, Barnyardgrass [11, 16]: 10
Plant response rating, Barnyardgrass [11, 17]: 0
Plant response rating, Barnyardgrass [11, 18]: 0
Plant response rating, Morningglory [12, 15]: 90
Plant response rating, Morningglory [12, 16]: 90
Plant response rating, Morningglory [12, 17]: 0
Plant response rating, Morningglory [12, 18]: 10

CCCc1ncc(C(=O)C2=C(O)CCCC2=O)c(=O)n1Cc1ccccc1 [Compound 103]
Plant response rating, Flood, Sedge, Umbrella [1]: 0
Plant response rating, Sedge, Umbrella [1, 13]: 0
Plant response rating, Sedge, Umbrella [1, 14]: 0
Sedge, Umbrella plant response rating [1]: 0
Plant response rating, Flood, Rice [2]: 0
Plant response rating, Rice [2, 13]: 0
Plant response rating, Rice [2, 14]: 0
Rice plant response rating [2]: 0
Plant response rating, Flood, Ducksalad [3]: 0
Plant response rating, Ducksalad [3, 13]: 0
Plant response rating, Ducksalad [3, 14]: 0
Ducksalad plant response rating [3]: 0
Plant response rating, Flood, Barnyardgrass [4]: 0
Plant response rating, Barnyardgrass [4, 13]: 0
Plant response rating, Barnyardgrass [4, 14]: 0
Barnyardgrass plant response rating [4]: 0
Plant response rating, Corn [5, 15]: 0
Plant response rating, Corn [5, 16]: 20
Plant response rating, Corn [5, 17]: 0
Plant response rating, Corn [5, 18]: 0
Plant response rating, Pigweed [6, 15]: 100
Plant response rating, Pigweed [6, 16]: 100
Plant response rating, Pigweed [6, 17]: 90
Plant response rating, Pigweed [6, 18]: 100
Plant response rating, Wheat [7, 15]: 0
Plant response rating, Wheat [7, 16]: 0
Plant response rating, Wheat [7, 17]: 0
Plant response rating, Wheat [7, 18]: 0
Plant response rating, Crabgrass, Large [8, 15]: 10
Plant response rating, Crabgrass, Large [8, 16]: 40
Plant response rating, Crabgrass, Large [8, 17]: 40
Plant response rating, Crabgrass, Large [8, 18]: 80
Plant response rating, Foxtail, Giant [9, 15]: 0
Plant response rating, Foxtail, Giant [9, 16]: 20
Plant response rating, Foxtail, Giant [9, 17]: 0
Plant response rating, Foxtail, Giant [9, 18]: 60
Plant response rating, Velvetleaf [10, 15]: 100
Plant response rating, Velvetleaf [10, 16]: 100
Plant response rating, Velvetleaf [10, 17]: 60
Plant response rating, Velvetleaf [10, 18]: 90
Plant response rating, Barnyardgrass [11, 15]: 30
Plant response rating, Barnyardgrass [11, 16]: 60
Plant response rating, Barnyardgrass [11, 17]: 0
Plant response rating, Barnyardgrass [11, 18]: 20
Plant response rating, Morningglory [12, 15]: 100
Plant response rating, Morningglory [12, 16]: 100
Plant response rating, Morningglory [12, 17]: 20
Plant response rating, Morningglory [12, 18]: 60
